How the values were obtained:
[1] = Thermogravimetric analysis of solvates (desolvation); assay type: physicochemical; conditions: eplerenone crystalline solvate; extrapolated from final solvent weight loss step, TGA, 10° C./minute, nitrogen purge
Protocol: Thermogravimetric analysis of solvates was performed using a TA Instruments TGA 2950 thermogravimetric analyzer. Samples were placed in an unsealed aluminum pan under nitrogen purge. Starting temperature was 25° C. with the temperature increased at a rate of about 10° C./minute.

[2] = Single crystal X-ray structure, unit cell parameters; assay type: physicochemical; conditions: for Isostructural to Methyl Ethyl ketone Solvate?: eplerenone crystalline solvate; for R: crystal structure determination; for Volume / ρ (calculated): unit cell; for Z / a / b / c / α / β / γ: unit cell parameter
Source text: Tables 8, 9 and 10 below summarize the unit cell parameters determined for Form H, Form L, and several solvated crystalline forms. […]

[3] = tested on: myocardial fibrosis in animal models; conditions: cited from earlier work

| Structure (SMILES) | Desolvation Temperature [1] | Isostructural to Methyl Ethyl ketone Solvate? [2] | other results |
| --- | --- | --- | --- |
| CCCOC(C)=O [Propyl Acetate] | 130 °C | Yes |  |
| CCCO [n-Propanol] |  | Yes |  |
| COC(=O)[C@@H]1CC23O[C@@H]2C(=O)CC[C@]3(C)[C@@]23OC2C[C@@]2(C)C(CCC24CCC(=O)O4)C13 (stereo partly drawn) [diepoxide, 7-methyl hydrogen 4α,5α:9α,11α-diepoxy-17-hydroxy-3-oxo-17α-pregnane-7α,21-dicarboxylate, γ-lactone] |  |  | R [2]: 0.0762; Volume [2]: 2119.0 Å; ρ (calculated) [2]: 1.349 g/mL; Z [2]: 4; a [2]: 21.328 Å Å; b [2]: 16.16 Å Å; c [2]: 6.15 Å Å; α [2]: 90°; β [2]: 90°; γ [2]: 90° |
| CCCCOC(C)=O [Butyl Acetate] | 108 °C | Yes |  |
| CC(C)=O [Acetone] | 117 °C | Yes |  |
| CCCCCCCCO [n-Octanol] | 116 °C | Yes |  |
| CCC(C)=O [Methyl Ethyl Ketone] | 89 °C |  |  |
| Cc1ccccc1 [Toluene] | 83 °C | Yes |  |
| CC(=O)OC(C)(C)C [t-Butyl Acetate] | 109 °C | Yes |  |
| CC(=O)S[C@@H]1CC2=CC(=O)CC[C@]2(C)[C@H]2CC[C@@]3(C)[C@@H](CC[C@@]34CCC(=O)O4)[C@H]12 [spironolactone] |  |  | myocardial fibrosis [3]: prevents myocardial fibrosis |
| CCCCO [n-Butanol] | 103 °C | Yes |  |
| COC(=O)[C@@H]1CC2=CC(=O)CC[C@]2(C)C2=CC[C@@]3(C)C(CCC34CCC(=O)O4)C21 (stereo partly drawn) [9,11 olefin] |  |  | R [2]: 0.0764; Volume [2]: 2069.3 Å; ρ (calculated) [2]: 1.279 g/mL; Z [2]: 4; a [2]: 20.90 Å Å; b [2]: 15.74 Å Å; c [2]: 6.29 Å Å; α [2]: 90°; β [2]: 90°; γ [2]: 90° |
| C1CCOC1 [Tetrahydrofuran] | 136 °C | Yes |  |
| CCOC(=O)CC [Ethyl Propionate] | 122 °C | Yes |  |
| ClC(Cl)Cl [Chloroform] | 125 °C | Yes |  |

More lines, main results first:

| Desolvation Temperature [1] | Isostructural to Methyl Ethyl ketone Solvate? [2] | Structure (SMILES) | other results |
| --- | --- | --- | --- |
|  | Yes | CC(=O)O [Acetic Acid] |  |
| 166 °C | Yes | CCO [Ethanol] |  |
| 188 °C | Yes | CC(O)CO (stereo not drawn) [Propylene Glycol] |  |
| 121 °C | Yes | CC(C)O [Isopropanol] |  |
| 103 °C | Yes | COC(C)=O [Methyl Acetate] |  |
| 112 °C | Yes | CC(=O)OCC(C)C [Isobutyl Acetate] |  |
